Results taken from US10208033B2, “β-carboline, dihydro-β-carboline and tetrahydro-β-carboline alkaloid derivatives and preparation methods same and use in aspects of preventing and treating plant viruses, fungicides and insecticides” (NANKAI UNIVERSITY, priority 2013, dated 2019).

Tests used:
Fusarium fujikuroi = assay: Fungicidal (bactericidal) activity in vitro, PDA colony diameter; assay type: cell-based; conditions: 50 mg/kg
Rhizoctonia solani = assay: as above; assay type: cell-based; conditions: 50 mg/kg
Alternaria solani = assay: as above; assay type: cell-based; conditions: 50 mg/kg
Phytophthora capsici = assay: as above; assay type: cell-based; conditions: 50 mg/kg
Botrytis cinerea = assay: as above; assay type: cell-based; conditions: 50 mg/kg
[1] = tested on: tobacco mosaic virus (TMV); assay: Anti-TMV in vitro effect (half-leaf soaking); assay type: cell-based, tobacco mosaic virus (host Nicotiana tabacum L.cv.Xanthi NN); conditions: for inhibition at 100 µg/mL / inhibition at 500 µg/mL: Tobacco mosaic virus, read-out: Relative inhibition rate (%) In vitro activity
Macrophoma kawatsukai = assay: Fungicidal (bactericidal) activity in vitro, PDA colony diameter; assay type: cell-based; conditions: 50 mg/kg
[2] = tested on: tobacco mosaic virus (TMV); assay: Anti-TMV in vivo protective effect; set-up: species or system tobacco mosaic virus (host Nicotiana tabacum L.cv.Xanthi NN); conditions: for inhibition at 100 µg/mL / inhibition at 500 µg/mL: Tobacco mosaic virus, read-out: Relative inhibition rate (%) In vivo protection
[3] = tested on: Colletotrichum orbiculare; assay: Fungicidal (bactericidal) activity in vitro, PDA colony diameter; assay type: cell-based; conditions: 50 mg/kg
Cercospora arachidicola = assay: as above; assay type: cell-based; conditions: 50 mg/kg
potato late blight = assay: microbe, parasite or virus in culture; assay type: cell-based
Bipolaria maydis = assay: organism not typed; assay type: cell-based; conditions: for Bactericidal activity (%) Bipolaria maydis: 50 mg/kg
mosquito larvae = assay: whole plant or invertebrate; conditions: 24 h; for mortality at 10 mg/kg: Culex pipiens, read-out: Mosquito larvae Mortality (%)
Outline: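 Early fourth-instar Culex pipiens pallens larvae from an indoor colony, 10 per beaker, exposed to test compound at 5 ppm in water, diluted from a 1000 ppm acetone mother solution. Blank: water containing 0.5 mL test solvent.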

[4] = tested on: tobacco mosaic virus (TMV); assay: Anti-TMV activity, overall statements on Table 1; assay type: in vivo, tobacco mosaic virus (host Nicotiana tabacum L.cv.Xanthi NN); conditions: 100 μg/mL versus ningnanmycin at 100 μg/mL
armyworms = assay type: in vivo; conditions: concentration 600 mg/kg
Sclerotinia scleotiorum = assay: Fungicidal (bactericidal) activity in vitro, PDA colony diameter; assay type: cell-based; conditions: 50 mg/kg
corn borers [5] = assay: whole plant or invertebrate; conditions: read-out: Corn borer Mortality (%)
cucumber fusarium wilt = assay: Fungicidal (bactericidal) activity in vitro, PDA colony diameter; assay type: cell-based; conditions: 50 mg/kg
cotton bollworms = assay: whole plant or invertebrate; conditions: for mortality at 600 mg/kg: Helicoverpa armigera, in Gossypium hirsutum, read-out: Cotton bollworm Mortality (%); for Cotton bollworm Mortality (%): concentration 600 mg/kg
Procedure: Experimental method of cotton bollworms: feed and drug mixing method: measure 3 mL of prepared solution and add it to about 27 g of newly prepared feed, thereby obtaining needed concentration through dilution by 10 times.

[6] = tested on: tobacco mosaic virus (TMV); assay: Anti-TMV in vivo inactivation; set-up: species or system tobacco mosaic virus (host Nicotiana tabacum L.cv.Xanthi NN); conditions: for inhibition at 100 µg/mL / inhibition at 500 µg/mL: Tobacco mosaic virus, read-out: Relative inhibition rate (%) In vivo inactivation
Fusarium graminearumt = assay: microbe, parasite or virus in culture; assay type: cell-based; conditions: for Bactericidal activity (%) Fusarium graminearumt: 50 mg/kg
Rhizoctonia cereali = assay: Fungicidal (bactericidal) activity in vitro, PDA colony diameter; assay type: cell-based; conditions: 50 mg/kg
[7] = tested on: tobacco mosaic virus (TMV); assay: Anti-TMV in vivo therapeutic effect; set-up: species or system tobacco mosaic virus (host Nicotiana tabacum L.cv.Xanthi NN); conditions: for inhibition at 100 µg/mL / inhibition at 500 µg/mL: Tobacco mosaic virus, read-out: Relative inhibition rate (%) In vivo therapy
corn borers [8] = conditions: concentration 600 mg/kg

CC1=NCCc2c1[nH]c1ccccc21 [Harmalan]
inhibition of growth at 50 mg/kg (Fusarium fujikuroi; Fusarium fujikuroi, 96 h): 28.6%
inhibition of growth at 50 mg/kg (Rhizoctonia solani; Rhizoctonia solani, 96 h): 19.7%
inhibition of growth at 50 mg/kg (Alternaria solani; Alternaria solani, 96 h): 26.3%
inhibition of growth at 50 mg/kg (Phytophthora capsici; Phytophthora capsici, 96 h): 0%
inhibition of growth at 50 mg/kg (Botrytis cinerea; Botrytis cinerea, 96 h): 15.2%
inhibition at 100 µg/mL ([1]; treatment dose 100 μg/mL): 30%
inhibition at 500 µg/mL ([1]; treatment dose 500 μg/mL): 58.6%
inhibition at 50 mg/kg (Macrophoma kawatsukai): 2.4%
inhibition at 100 µg/mL ([2]; treatment dose 100 μg/mL): 35.6%
inhibition at 500 µg/mL ([2]; treatment dose 500 μg/mL): 60.3%
inhibition of growth at 50 mg/kg ([3]; Colletotrichum orbiculare, 96 h): 25%
inhibition of growth at 50 mg/kg (Cercospora arachidicola; Mycosphaerella arachidis, 96 h): 76.9%
inhibition of growth at 50 mg/kg (potato late blight; Phytophthora infestans, 96 h, read-out: Bactericidal activity (%) potato late blight): 31.8%
inhibition at 50 mg/kg (Bipolaria maydis; read-out: Bactericidal activity (%) Bipolaria maydis): 27.3%
mortality at 10 mg/kg (mosquito larvae): 35%
anti-TMV activity compared with ningnanmycin [4]: equivalent to the activity of commercial variety ningnanmycin
Armyworm Mortality (%) (armyworms): 20%
inhibition of growth at 50 mg/kg (Sclerotinia scleotiorum; Sclerotinia, 96 h): 19.6%
mortality at 600 mg/kg (corn borers [5]): 15%
inhibition of growth at 50 mg/kg (cucumber fusarium wilt; Fusarium, 96 h): 23.1%
mortality at 600 mg/kg (cotton bollworms): 10%
inhibition at 100 µg/mL ([6]; treatment dose 100 μg/mL): 32.7%
inhibition at 500 µg/mL ([6]; treatment dose 500 μg/mL): 62.3%
inhibition of growth at 50 mg/kg (Fusarium graminearumt; Fusarium, 96 h, read-out: Bactericidal activity (%) Fusarium graminearumt): 21.4%
inhibition of growth at 50 mg/kg (Rhizoctonia cereali; Rhizoctonia, 96 h): 55.3%
inhibition at 100 µg/mL ([7]; treatment dose 100 μg/mL): 34.8%
inhibition at 500 µg/mL ([7]; treatment dose 500 μg/mL): 55.1%

CC(=NNC(=O)[C@@H]1Cc2c([nH]c3ccccc23)[C@H](C)N1)C(C)(C)C [Ic-28, (1S, 3S)—N′-(3,3-dimethyl-2-butylidene)-1-methyl-2,3,4,9-tetrahydropyridino [3,4-b] indol-3-formylhydrazine]
Bactericidal activity (%) Fusarium fujikuroi (Fusarium fujikuroi): 23.5%
Bactericidal activity (%) Rhizoctonia solani (Rhizoctonia solani): 8.3%
Bactericidal activity (%) Alternaria solani (Alternaria solani): 14.3%
Bactericidal activity (%) Phytophthora capsici (Phytophthora capsici): 18.2%
Bactericidal activity (%) Botrytis cinerea (Botrytis cinerea): 41.7%
Relative inhibition rate (%) In vitro activity ([1]; treatment dose 100 μg/mL): 25.6%
Relative inhibition rate (%) In vitro activity ([1]; treatment dose 500 μg/mL): 58.1%
Bactericidal activity (%) Macrophoma kawatsukai (Macrophoma kawatsukai): 36.4%
Relative inhibition rate (%) In vivo protection ([2]; treatment dose 100 μg/mL): 18.9%
Relative inhibition rate (%) In vivo protection ([2]; treatment dose 500 μg/mL): 56.8%
Bactericidal activity (%) Colletotrichum orbiculare [3]: 32.0%
Bactericidal activity (%) Cercospora arachidicola (Cercospora arachidicola): 36.4%
Corn borer Mortality (%) (corn borers [8]): 40%
Bactericidal activity (%) potato late blight (potato late blight): 30.4%
Bactericidal activity (%) Bipolaria maydis (Bipolaria maydis): 28.0%
Mosquito larvae Mortality (%) (mosquito larvae; concentration 5 mg/kg): 20%
Mosquito larvae Mortality (%) (mosquito larvae; concentration 10 mg/kg): 100%
anti-TMV activity compared with ningnanmycin [4]: equivalent to the activity of commercial variety ningnanmycin
Armyworm Mortality (%) (armyworms): 45%
Bactericidal activity (%) Sclerotinia scleotiorum (Sclerotinia scleotiorum): 3.8%
Bactericidal activity (%) Cucumber fusarium wilt (cucumber fusarium wilt): 4.5%
Cotton bollworm Mortality (%) (cotton bollworms): 45%
Relative inhibition rate (%) In vivo inactivation ([6]; treatment dose 100 μg/mL): 21.3%
Relative inhibition rate (%) In vivo inactivation ([6]; treatment dose 500 μg/mL): 59.7%
Bactericidal activity (%) Fusarium graminearumt (Fusarium graminearumt): 53.8%
Bactericidal activity (%) Rhizoctonia cereali (Rhizoctonia cereali): 48.6%
Relative inhibition rate (%) In vivo therapy ([7]; treatment dose 100 μg/mL): 16.7%
Relative inhibition rate (%) In vivo therapy ([7]; treatment dose 500 μg/mL): 55.4%

C[C@@H]1N[C@H](C(=O)NNC(=O)C(C)(C)C)Cc2c1[nH]c1ccccc21 [Id-6, (1S, 3S)—N′-tert-valeryl-1-methyl-2,3,4,9-tetrahydropyridino [3,4-b] indol-3-formylhydrazine]
Bactericidal activity (%) Fusarium fujikuroi (Fusarium fujikuroi): 29.4%
Bactericidal activity (%) Rhizoctonia solani (Rhizoctonia solani): 5.6%
Bactericidal activity (%) Alternaria solani (Alternaria solani): 14.3%
Bactericidal activity (%) Phytophthora capsici (Phytophthora capsici): 12.1%
Bactericidal activity (%) Botrytis cinerea (Botrytis cinerea): 50.0%
Relative inhibition rate (%) In vitro activity ([1]; treatment dose 100 μg/mL): 8.9%
Relative inhibition rate (%) In vitro activity ([1]; treatment dose 500 μg/mL): 45.7%
Bactericidal activity (%) Macrophoma kawatsukai (Macrophoma kawatsukai): 42.4%
Relative inhibition rate (%) In vivo protection ([2]; treatment dose 100 μg/mL): 16.9%
Relative inhibition rate (%) In vivo protection ([2]; treatment dose 500 μg/mL): 47.5%
Bactericidal activity (%) Colletotrichum orbiculare [3]: 24.0%
Bactericidal activity (%) Cercospora arachidicola (Cercospora arachidicola): 9.1%
Corn borer Mortality (%) (corn borers [8]): 50%
Bactericidal activity (%) potato late blight (potato late blight): 26.1%
Bactericidal activity (%) Bipolaria maydis (Bipolaria maydis): 20.0%
Mosquito larvae Mortality (%) (mosquito larvae; concentration 10 mg/kg): 65%
anti-TMV activity compared with ningnanmycin [4]: equivalent to the activity of commercial variety ningnanmycin
Armyworm Mortality (%) (armyworms): 35%
Bactericidal activity (%) Sclerotinia scleotiorum (Sclerotinia scleotiorum): 17.3%
Bactericidal activity (%) Cucumber fusarium wilt (cucumber fusarium wilt): 4.5%
Cotton bollworm Mortality (%) (cotton bollworms): 25%
Relative inhibition rate (%) In vivo inactivation ([6]; treatment dose 100 μg/mL): 12.8%
Relative inhibition rate (%) In vivo inactivation ([6]; treatment dose 500 μg/mL): 44%
Bactericidal activity (%) Fusarium graminearumt (Fusarium graminearumt): 30.8%
Bactericidal activity (%) Rhizoctonia cereali (Rhizoctonia cereali): 10.8%
Relative inhibition rate (%) In vivo therapy ([7]; treatment dose 100 μg/mL): 14.2%
Relative inhibition rate (%) In vivo therapy ([7]; treatment dose 500 μg/mL): 42.1%

C[C@@H]1N[C@H](C(=O)NNC(=O)C2CCCC2)Cc2c1[nH]c1ccccc21 [Id-7, (1S, 3S)—N′-(cyclopentyl formyl)-1-methyl-2,3,4,9-tetrahydropyridino [3,4-b] indol-3-formylhydrazine]
Bactericidal activity (%) Fusarium fujikuroi (Fusarium fujikuroi): 29.4%
Bactericidal activity (%) Rhizoctonia solani (Rhizoctonia solani): 1.4%
Bactericidal activity (%) Alternaria solani (Alternaria solani): 9.5%
Bactericidal activity (%) Phytophthora capsici (Phytophthora capsici): 15.2%
Bactericidal activity (%) Botrytis cinerea (Botrytis cinerea): 50.0%
Relative inhibition rate (%) In vitro activity ([1]; treatment dose 100 μg/mL): 22.2%
Relative inhibition rate (%) In vitro activity ([1]; treatment dose 500 μg/mL): 47.2%
Bactericidal activity (%) Macrophoma kawatsukai (Macrophoma kawatsukai): 33.3%
Relative inhibition rate (%) In vivo protection ([2]; treatment dose 100 μg/mL): 26.6%
Relative inhibition rate (%) In vivo protection ([2]; treatment dose 500 μg/mL): 53.9%
Bactericidal activity (%) Colletotrichum orbiculare [3]: 16.0%
Bactericidal activity (%) Cercospora arachidicola (Cercospora arachidicola): 9.1%
Corn borer Mortality (%) (corn borers [8]): 40%
Bactericidal activity (%) potato late blight (potato late blight): 21.7%
Bactericidal activity (%) Bipolaria maydis (Bipolaria maydis): 28.0%
Mosquito larvae Mortality (%) (mosquito larvae; concentration 10 mg/kg): 80%
anti-TMV activity compared with ningnanmycin [4]: equivalent to the activity of commercial variety ningnanmycin
Armyworm Mortality (%) (armyworms): 40%
Bactericidal activity (%) Sclerotinia scleotiorum (Sclerotinia scleotiorum): 7.7%
Bactericidal activity (%) Cucumber fusarium wilt (cucumber fusarium wilt): 9.1%
Cotton bollworm Mortality (%) (cotton bollworms): 30%
Relative inhibition rate (%) In vivo inactivation ([6]; treatment dose 100 μg/mL): 20.3%
Relative inhibition rate (%) In vivo inactivation ([6]; treatment dose 500 μg/mL): 42.4%
Bactericidal activity (%) Fusarium graminearumt (Fusarium graminearumt): 15.4%
Bactericidal activity (%) Rhizoctonia cereali (Rhizoctonia cereali): 29.7%
Relative inhibition rate (%) In vivo therapy ([7]; treatment dose 100 μg/mL): 18.6%
Relative inhibition rate (%) In vivo therapy ([7]; treatment dose 500 μg/mL): 51.4%

CC1NCCc2c1[nH]c1ccccc21 (centres unmarked) [Tetrahydroharmane]
inhibition at 100 µg/mL ([1]; treatment dose 100 μg/mL): 28.4%
inhibition at 500 µg/mL ([1]; treatment dose 500 μg/mL): 63.7%
inhibition at 100 µg/mL ([2]; treatment dose 100 μg/mL): 24.6%
inhibition at 500 µg/mL ([2]; treatment dose 500 μg/mL): 59.5%
mortality at 10 mg/kg (mosquito larvae): 30%
anti-TMV activity compared with ningnanmycin [4]: equivalent to the activity of commercial variety ningnanmycin
Armyworm Mortality (%) (armyworms): 15%
mortality at 600 mg/kg (corn borers [5]): 10%
mortality at 600 mg/kg (cotton bollworms): 15%
inhibition at 100 µg/mL ([6]; treatment dose 100 μg/mL): 23.5%
inhibition at 500 µg/mL ([6]; treatment dose 500 μg/mL): 64.2%
inhibition at 100 µg/mL ([7]; treatment dose 100 μg/mL): 20.4%
inhibition at 500 µg/mL ([7]; treatment dose 500 μg/mL): 57.2%
